Patent US10206399B2, “Herbicidal composition comprising uracil compound as active ingredient” (Dongbu Farm Hannong Co., Ltd., priority 2012, dated 2019)
Like-named read-outs stand apart in the source and are kept apart here.

What was measured:
wild amaranth = test: Nonselective composition of 1 uracil compound and 2 herbicidally active compounds, plant mortality; assay type: in vivo
Text: (§1) X is % damage by uracil compound (a) of formula 1 at the rate of application of p kg/ha; Y is % damage by conventional herbicidal compound (b) at the rate of application of q kg/ha; and E is the expected damage caused by compounds (a) and (b) at a rate of application of p and q kg/ha.
(§2) The expected activity for a given combination of two herbicides can be calculated using equation 1 above.

ryegrass = test: as above; assay type: in vivo
Text: as §1, §2

Capsella bursapastoris = test: Dry field farming herbicidal composition test, plant mortality; assay type: in vivo; conditions: in % (unit assumed)
Text: as §1, §2

wheat = test: Dry field farming herbicidal composition test, plant mortality (crop)
Text: as §1, §2

Lamium amplexicaule = test: Dry field farming herbicidal composition test, plant mortality; assay type: in vivo; conditions: in % (unit assumed)
Text: as §1, §2

Porippa islandica = test: as above; assay type: in vivo
Text: as §1, §2

Alopecurus aequalis = test: as above; assay type: in vivo; conditions: in % (unit assumed)
Text: as §1, §2

Aeschynomene indica = conditions: for Aeschynomene indica mortality, measured value: 20 days after treatment; for plant mortality, measured value: Aeschynomene indica
Text: as §1, §2

Xanthium spinosum = conditions: for Xanthium spinosum mortality, measured value: 20 days after treatment; for plant mortality, measured value: Xanthium spinosum
Text: as §1, §2

Echinochloa crus = conditions: for Echinochloa crus mortality, measured value: 20 days after treatment; for plant mortality, measured value: Echinochloa crus
Text: as §1, §2

Digitaria sanguinalis = conditions: for Digitaria sanguinalis mortality, measured value: 20 days after treatment; for plant mortality, measured value: Digitaria sanguinalis
Text: as §1, §2

Abutilon theophrasti = conditions: for Abutilon theophrasti mortality, measured value: 20 days after treatment; for plant mortality, measured value: Abutilon theophrasti
Text: as §1, §2

[1] = Amaranthus caudatus, 480 h, read-out: Wild amaranth mortality (measured value)
[2] = 480 h, read-out: ryegrass mortality (measured value)

SMILES: CCOCN(C(=O)CCl)c1c(C)cccc1CC [Acetochlor]
- pest or weed control at 375 g/ha (wild amaranth; [1]): 10%
- pest or weed control at 375 g/ha (ryegrass; [2]): 30%

SMILES: Nc1cc(Cl)nc(C(=O)O)c1Cl [Aminopyralid]
- Wild amaranth mortality (measured value) (wild amaranth; 250 g ai/ha): 20
- ryegrass mortality (measured value) (ryegrass; 250 g ai/ha): 0

SMILES: COC(=O)NS(=O)(=O)c1ccc(N)cc1 [Asulam]
- pest or weed control at 1250 g/ha (wild amaranth; [1]): 20%
- pest or weed control at 1250 g/ha (ryegrass; [2]): 25%

SMILES: CCNc1nc(Cl)nc(NC(C)C)n1 [Atrazine]
- pest or weed control at 200 g/ha (wild amaranth; [1]): 25%
- pest or weed control at 200 g/ha (ryegrass; [2]): 30%

SMILES: C[C@H](NC(=O)[C@H](C)NC(=O)[C@@H](N)CCP(C)(=O)O)C(=O)O [Bilanafos]
- pest or weed control at 500 g/ha (wild amaranth; Amaranthus caudatus, 480 h, 500 g ai/ha, read-out: Wild amaranth mortality (measured value)): 15%
- pest or weed control at 500 g/ha (ryegrass; 480 h, 500 g ai/ha, read-out: ryegrass mortality (measured value)): 30%

SMILES: CC1(C)CON(Cc2ccccc2Cl)C1=O [Clomazone]
- pest or weed control at 175 g/ha (wild amaranth; [1]): 30%
- pest or weed control at 175 g/ha (ryegrass; [2]): 15%

SMILES: O=C(O)c1nc(Cl)ccc1Cl [Clopyralid]
- pest or weed control at 125 g/ha (wild amaranth; [1]): 10%
- pest or weed control at 125 g/ha (ryegrass; [2]): 0%

SMILES: CC(Oc1ccc(Oc2ccc(Cl)cc2Cl)cc1)C(=O)O (centres unmarked) [Diclofop]
- pest or weed control at 175 g/ha (wild amaranth; [1]): 0%
- pest or weed control at 175 g/ha (ryegrass; [2]): 30%

SMILES: O=C(Nc1ccc(F)cc1F)c1cccnc1Oc1cccc(C(F)(F)F)c1 [Diflufenican]
- Capsella bursapastoris mortality, measured value (Capsella bursapastoris; 37.5 g/ha): 6
- Capsella bursapastoris mortality, measured value (Capsella bursapastoris; 75 g/ha): 21
- Capsella bursapastoris mortality, measured value (Capsella bursapastoris; 150 g/ha): 45
- Wheat mortality, measured value (wheat; 37.5 g/ha): 0
- Wheat mortality, measured value (wheat; 75 g/ha): 0
- Wheat mortality, measured value (wheat; 150 g/ha): 1
- Lamium amplexicaule mortality, measured value (Lamium amplexicaule; 37.5 g/ha): 10
- Lamium amplexicaule mortality, measured value (Lamium amplexicaule; 75 g/ha): 24
- Lamium amplexicaule mortality, measured value (Lamium amplexicaule; 150 g/ha): 47
- Porippa islandica mortality, measured value (Porippa islandica; 37.5 g/ha): 5
- Porippa islandica mortality, measured value (Porippa islandica; 75 g/ha): 20
- Porippa islandica mortality, measured value (Porippa islandica; 150 g/ha): 40
- Alopecurus aequalis mortality, measured value (Alopecurus aequalis; 37.5 g/ha): 0
- Alopecurus aequalis mortality, measured value (Alopecurus aequalis; 75 g/ha): 0
- Alopecurus aequalis mortality, measured value (Alopecurus aequalis; 150 g/ha): 0

SMILES: C/C(=N\NC(=O)Nc1cc(F)cc(F)c1)c1ncccc1C(=O)O [Diflufenzopyr]
- pest or weed control at 12.5 g/ha (wild amaranth; [1]): 20%
- pest or weed control at 12.5 g/ha (ryegrass; [2]): 20%

SMILES: CCOC1Oc2ccc(OS(C)(=O)=O)cc2C1(C)C (centres unmarked) [Ethofumesate]
- pest or weed control at 250 g/ha (wild amaranth; [1]): 20%
- pest or weed control at 250 g/ha (ryegrass; [2]): 25%

SMILES: CP(=O)(O)CCC(N)C(=O)O (centres unmarked) [Glufosinate-ammonium]
- pest or weed control at 150 g/ha (wild amaranth; [1]): 20%
- pest or weed control at 150 g/ha (ryegrass; [2]): 10%

SMILES: CC(C)N.O=C(O)CNCP(=O)(O)O [Glyphosate-IPA]
- Wild amaranth mortality (measured value) (wild amaranth; 300 g ai/ha): 10
- ryegrass mortality (measured value) (ryegrass; 300 g ai/ha): 10

SMILES: COCc1cnc(C2=NC(C)(C(C)C)C(=O)N2)c(C(=O)O)c1 (centres unmarked) [Imazamox]
- pest or weed control at 8.3 g/ha (wild amaranth; [1]): 20%
- pest or weed control at 8.3 g/ha (ryegrass; [2]): 30%

SMILES: CC(C)c1ccc(NC(=O)N(C)C)cc1 [Isoproturon]
- Capsella bursapastoris mortality, measured value (Capsella bursapastoris; 150 g/ha): 11
- Capsella bursapastoris mortality, measured value (Capsella bursapastoris; 300 g/ha): 29
- Capsella bursapastoris mortality, measured value (Capsella bursapastoris; 600 g/ha): 63
- Wheat mortality, measured value (wheat; 150 g/ha): 0
- Wheat mortality, measured value (wheat; 300 g/ha): 0
- Wheat mortality, measured value (wheat; 600 g/ha): 1
- Lamium amplexicaule mortality, measured value (Lamium amplexicaule; 150 g/ha): 12
- Lamium amplexicaule mortality, measured value (Lamium amplexicaule; 300 g/ha): 25
- Lamium amplexicaule mortality, measured value (Lamium amplexicaule; 600 g/ha): 49
- Porippa islandica mortality, measured value (Porippa islandica; 150 g/ha): 10
- Porippa islandica mortality, measured value (Porippa islandica; 300 g/ha): 26
- Porippa islandica mortality, measured value (Porippa islandica; 600 g/ha): 53
- Alopecurus aequalis mortality, measured value (Alopecurus aequalis; 150 g/ha): 15
- Alopecurus aequalis mortality, measured value (Alopecurus aequalis; 300 g/ha): 32
- Alopecurus aequalis mortality, measured value (Alopecurus aequalis; 600 g/ha): 64

SMILES: CCC(C)(CC)c1cc(NC(=O)c2c(OC)cccc2OC)on1 [Isoxaben]
- pest or weed control at 31 g/ha (wild amaranth; [1]): 30%
- pest or weed control at 31 g/ha (ryegrass; [2]): 0%

SMILES: COC(=O)c1ccc(CNS(C)(=O)=O)cc1S(=O)(=O)NC(=O)Nc1nc(OC)cc(OC)n1 [Mesosulfuron]
- Capsella bursapastoris mortality, measured value (Capsella bursapastoris; 2 g/ha): 10
- Capsella bursapastoris mortality, measured value (Capsella bursapastoris; 4 g/ha): 30
- Capsella bursapastoris mortality, measured value (Capsella bursapastoris; 8 g/ha): 59
- Wheat mortality, measured value (wheat; 2 g/ha): 0
- Wheat mortality, measured value (wheat; 4 g/ha): 0
- Wheat mortality, measured value (wheat; 8 g/ha): 1
- Lamium amplexicaule mortality, measured value (Lamium amplexicaule; 2 g/ha): 13
- Lamium amplexicaule mortality, measured value (Lamium amplexicaule; 4 g/ha): 26
- Lamium amplexicaule mortality, measured value (Lamium amplexicaule; 8 g/ha): 55
- Porippa islandica mortality, measured value (Porippa islandica; 2 g/ha): 12
- Porippa islandica mortality, measured value (Porippa islandica; 4 g/ha): 27
- Porippa islandica mortality, measured value (Porippa islandica; 8 g/ha): 61
- Alopecurus aequalis mortality, measured value (Alopecurus aequalis; 2 g/ha): 15
- Alopecurus aequalis mortality, measured value (Alopecurus aequalis; 4 g/ha): 32
- Alopecurus aequalis mortality, measured value (Alopecurus aequalis; 8 g/ha): 64

SMILES: C[C@@H](Oc1ccc(Oc2nc3ccc(Cl)cc3o2)cc1)C(=O)N(C)c1ccccc1F [Metamifop, reference compound]
- Aeschynomene indica mortality, measured value (Aeschynomene indica; 25 g/ha): 0%
- plant mortality, measured value (Aeschynomene indica; 25 g/ha): 0
- Aeschynomene indica mortality, measured value (Aeschynomene indica; 50 g/ha): 0%
- plant mortality, measured value (Aeschynomene indica; 50 g/ha): 0
- Aeschynomene indica mortality, measured value (Aeschynomene indica; 100 g/ha): 0%
- plant mortality, measured value (Aeschynomene indica; 100 g/ha): 0
- Xanthium spinosum mortality, measured value (Xanthium spinosum; 25 g/ha): 0%
- plant mortality, measured value (Xanthium spinosum; 25 g/ha): 0
- Xanthium spinosum mortality, measured value (Xanthium spinosum; 50 g/ha): 0%
- plant mortality, measured value (Xanthium spinosum; 50 g/ha): 0
- Xanthium spinosum mortality, measured value (Xanthium spinosum; 100 g/ha): 0%
- plant mortality, measured value (Xanthium spinosum; 100 g/ha): 0
- Echinochloa crus mortality, measured value (Echinochloa crus; 25 g/ha): 11%
- plant mortality, measured value (Echinochloa crus; 25 g/ha): 11
- Echinochloa crus mortality, measured value (Echinochloa crus; 50 g/ha): 26%
- plant mortality, measured value (Echinochloa crus; 50 g/ha): 26
- Echinochloa crus mortality, measured value (Echinochloa crus; 100 g/ha): 57%
- plant mortality, measured value (Echinochloa crus; 100 g/ha): 57
- Digitaria sanguinalis mortality, measured value (Digitaria sanguinalis; 25 g/ha): 11%
- plant mortality, measured value (Digitaria sanguinalis; 25 g/ha): 11
- Digitaria sanguinalis mortality, measured value (Digitaria sanguinalis; 50 g/ha): 23%
- plant mortality, measured value (Digitaria sanguinalis; 50 g/ha): 23
- Digitaria sanguinalis mortality, measured value (Digitaria sanguinalis; 100 g/ha): 48%
- plant mortality, measured value (Digitaria sanguinalis; 100 g/ha): 48
- Abutilon theophrasti mortality, measured value (Abutilon theophrasti; 25 g/ha): 0%
- plant mortality, measured value (Abutilon theophrasti; 25 g/ha): 0
- Abutilon theophrasti mortality, measured value (Abutilon theophrasti; 50 g/ha): 0%
- plant mortality, measured value (Abutilon theophrasti; 50 g/ha): 0
- Abutilon theophrasti mortality, measured value (Abutilon theophrasti; 100 g/ha): 0%
- plant mortality, measured value (Abutilon theophrasti; 100 g/ha): 0

SMILES: CC(C)Oc1cc(-n2nc(C(C)(C)C)oc2=O)c(Cl)cc1Cl [Oxadiazon]
- pest or weed control at 500 g/ha (wild amaranth; [1]): 30%
- pest or weed control at 500 g/ha (ryegrass; [2]): 30%

SMILES: CCC(CC)Nc1c([N+](=O)[O-])cc(C)c(C)c1[N+](=O)[O-] [Pendimethalin]
- pest or weed control at 250 g/ha (wild amaranth; [1]): 20%
- pest or weed control at 250 g/ha (ryegrass; [2]): 30%

SMILES: O=C(Nc1ccc(F)cc1)c1cccc(Oc2cccc(C(F)(F)F)c2)n1 [Picolinafen]
- Wild amaranth mortality (measured value) (wild amaranth; 25 g ai/ha): 25
- ryegrass mortality (measured value) (ryegrass; 25 g ai/ha): 0

SMILES: CS(=O)(=O)c1ccc(C(=O)C2C(=O)CCCC2=O)c(Cl)c1 [Sulcotrione]
- pest or weed control at 75 g/ha (wild amaranth; [1]): 20%
- pest or weed control at 75 g/ha (ryegrass; [2]): 20%

SMILES: COc1cc(OC)nc(NC(=O)NS(=O)(=O)c2ncccc2OCC(F)(F)F)n1 [Trifloxysulfuron]
- Data (measured value) Aeschynomene indica (Aeschynomene indica; 1.25 g/ha): 9
- plant mortality, measured value (Aeschynomene indica; 1.25 g/ha): 9
- Data (measured value) Aeschynomene indica (Aeschynomene indica; 5 g/ha): 58
- plant mortality, measured value (Aeschynomene indica; 5 g/ha): 58
- Data (measured value) Xanthium spinosum (Xanthium spinosum; 1.25 g/ha): 13
- plant mortality, measured value (Xanthium spinosum; 1.25 g/ha): 13
- Data (measured value) Xanthium spinosum (Xanthium spinosum; 5 g/ha): 62
- plant mortality, measured value (Xanthium spinosum; 5 g/ha): 62
- Data (measured value) Echinochloa crus (Echinochloa crus; 1.25 g/ha): 8
- plant mortality, measured value (Echinochloa crus; 1.25 g/ha): 8
- Data (measured value) Echinochloa crus (Echinochloa crus; 5 g/ha): 56
- plant mortality, measured value (Echinochloa crus; 5 g/ha): 56
- Data (measured value) Digitaria sanguinalis (Digitaria sanguinalis; 1.25 g/ha): 8
- plant mortality, measured value (Digitaria sanguinalis; 1.25 g/ha): 8
- Data (measured value) Digitaria sanguinalis (Digitaria sanguinalis; 5 g/ha): 51
- plant mortality, measured value (Digitaria sanguinalis; 5 g/ha): 51
- Data (measured value) Abutilon theophrasti (Abutilon theophrasti; 1.25 g/ha): 12
- plant mortality, measured value (Abutilon theophrasti; 1.25 g/ha): 12
- Data (measured value) Abutilon theophrasti (Abutilon theophrasti; 5 g/ha): 61
- plant mortality, measured value (Abutilon theophrasti; 5 g/ha): 61
